# Laboratory results reported in patent publication US20140094451A1, “PREVENTIVE OR REMEDY FOR GLAUCOMA” (Kowa Co., Ltd., priority 2005, published 2014).
# What was measured:
# [1] = test system: Japanese white rabbits; assay: Ocular hypotensive effect (IOP change from initial IOP) after instillation, alone or in combination; type: in vivo; settings: FIG. 2; single drug treatment groups; instillation 50 μL, male JW rabbits
# Description: To examine usefulness of combination use of a Rho kinase inhibitor and an α1 blocker, the ocular hypotensive effects were compared by administering either of these drugs alone or both in combination to laboratory animals. (S)-(−)-1-(4-fluoro-5-isoquinolinesulfonyl)-2-methyl-1,4-homopiperazine-hydrochloride dihydrate was dissolved in physiological saline, and the solution was neutralized (pH 6.0) by adding sodium dihydrogenphosphate and sodium hydroxide to prepare a (S)-(−)-1-(4-fluoro-5-isoquinolinesulfonyl)-2-methyl-1,4-homopiperazine solution at a desired concentration. The commercially available “Eril® S Injection” (Asahi Kasei Pharma) was used as it was. The commercially available “Detantol 0.01% Ophthalmic Solution” (Santen Pharmaceutical Co., Ltd.) was used as it was. The ocular hypotensive effect was examined after the combination use of (S)-(−)-1-(4-fluoro-5-isoquinolinesulfonyl)-2-methyl-1,4-homopiperazine and bunazosin. As a control, the ocular hypotensive effect was also examined after the use of bunazosin alone or (S)-(−)-1-(4-fluoro-5-isoquinolinesulfonyl)-2-methyl-1,4-homopiperazine alone. Similarly, the ocular hypotensive effect was examined after the combination use of hexahydro-1-(5-isoquinolinesulfonyl)-1H-1,4-diazepine and bunazosin. […]
# [2] = test system: rabbits with normal IOP; settings: cited from earlier work
SMILES,time after instillation when the ocular hypotensive effect disappeared [1] [h],time after instillation from which IOP is lowered [2] [h],time of maximum ocular hypotensive effect after instillation [2] [h],"maximum IOP reduction ([2]; instillation, concentration of 0.10) [mmHg]"
CCCC(=O)N1CCCN(c2nc(N)c3cc(OC)c(OC)cc3n2)CC1 [bunazosin],5,–,–,–
"O=S(=O)(c1cccc2cnccc12)N1CCCNCC1 [hexahydro-1-(5-isoquinolinesulfonyl)-1H-1,4-diazepine]",5,–,–,–
C[C@@H](N)c1ccc(C(=O)Nc2ccnc3[nH]ccc23)cc1 [Y-39983],–,1,2 to 4,15
